From patent publication US20210371413A1, “POLYCYCLIC AMIDES AS CYTOTOXIC AGENTS” (FEMTOGENIX LIMITED, priority 2018, published 2021)
Values after ≈ are worked out from the molar mass of the structure shown.

What was measured:
Assay type in all cases: cell-based
[1] = system: Klebsiella pneumoniae KP4631; assay: MIC assay, Klebsiella pneumoniae KP4631; conditions: Klebsiella pneumoniae, KP4631
Experimental: (§1) The antimicrobial activity of a selection of compounds were evaluated in a Gram-negative, Gram-positive and multi-resistant bacteria using the standard minimum inhibitory concentration (MIC) assay for an overnight (16-20 hour) incubation period. Commercially marketed antibiotics (Table 3) were used as positive controls during the study.
(§2) Mueller-Hinton broth (MH Broth) (Sigma-Aldrich; Millipore, cat. no. 70192) and Mueller-Hinton agar (MHA) (Sigma-Aldrich; Millipore, cat. no. 70191) were prepared as per manufacturer's instructions and sterilized by autoclaving. Approximately 20 mL of MHA was poured onto 15×100 mm petri dishes and allowed to set. Agar plates were then stored in plastic bags in an inverted position at 4° C.
(§3) Bacterial strains were provided in the form of a glycerol stock, stored at −80° C. For the purpose of preparation of bacterial suspension, appropriate strains were removed from −80° C. storage onto dry ice and not allowed to freeze-thaw.
(§4) Stock solutions of 16, 45 and 73 were provided in DMSO at 1.28 mg/mL concentration. From this stock solution, working solutions of the desired concentration were prepared by diluting with MHB.
(§5) MIC assay methodology was adapted from previously published work.
(§6) Bacterial isolate to be tested was streaked onto a nutrient-rich MH agar plate and incubated overnight at 37° C. in order to obtain single colonies.
(§7) After overnight incubation, single colonies with the same morphological appearance were chosen from the agar plate. These were touched using a sterile loop and transferred into a tube containing 10 mL of a MH broth. They were then mixed using vortex mixer and incubated at 35-37° C. in a shaker at 200 r.p.m. overnight.
(§8) Determination of OD600 and cfu/mL count OD600 (the optical density of a sample measured at a wavelength of 600 nm) of the overnight culture was measured. Because of the loss of linearity at OD600 values […], it was necessary to dilute the sample until the OD600 value was below 1.0. For all tested bacteria, a dilution of 1:10 was appropriate (100 μL in 900 μL broth).
(§9) The overnight culture was then diluted 1:100 using sterile tubes and MH broth (dilution: 10^−2). Serial dilution was then performed six times until dilution of 10^−8 was reached. 100 μL of dilutions 10^−7 and 10^−8 were plated onto MH agar plates in triplicate using a sterile cell spreader and incubated overnight at 37° C.
(§10) After overnight incubation, colonies on plates were counted and cfu per mL calculated. The following formula was applied: […]
(§11) After overnight incubation, the OD600 was measured and the overnight culture was diluted accordingly to obtain 1×10^8 cfu/mL. […]
(§12) The 96-well plates were read using a SpectraMax plate reader at an absorbance of 600 nm. […]

A431 (Skin) = assay: In vitro cytotoxicity, MTT assay, A431; conditions: Homo sapiens, A-431, 72 h, read-out: Cytotoxicity
Experimental: (§13) The in vitro cytotoxicity of a selection of compounds were evaluated in a panel of cell lines using the standard MTT assay for a 72 hour incubation period (Table 2). Free payloads produced cytotoxicities in the nanomolar range.
(§14) Tumor cell lines were maintained in RPMI1640 medium supplemented with 10% heat-inactivated fetal bovine serum, 2 mM L-glutamine and 1 mM sodium pyruvate. 1800 cells per well were seeded in a volume of 180 μl in a 96-well flat bottom polystyrene plate. The cells were allowed to adhere overnight at 37° C. in a CO2 incubator. Ligands were initially formulated in DMSO, and stocks stored at −80° C. They were then further formulated at lox concentration in RPMI1640 medium. 20 ul of diluted samples were added into each treatment well. On each plate, blank wells with no cells, and untreated wells containing cells, were included. Plates were then cultured at 37° C. in a CO2 incubator for 72 hrs. Cytotoxicity was evaluated using a tetrazolium salt-based assay, the MTT assay. After 72 hours, the supernatant was removed from each well and 200 μl of a sterile filtered 500 μg/ml MTT solution in water added to each well. The plates were then incubated at 37° C. in a CO2 incubator for 4 hrs. The supernatant was then removed and the formazan crystals formed solubilized by adding 150 μl of DMSO to each well. The plate was then read on a plate reader at 540 nm, and percentage cell survival calculated as follows: ((mean absorbance treated wells at concentration x−mean absorbance blank wells)+(mean absorbance untreated wells at concentration x−mean absorbance blank wells))×100. Data were plotted as concentration in nM vs. % cell survival in Microsoft Excel, and IC50 values (concentration where cell survival is reduced by a half) were determined from the graph.

E. coli K12 = assay: MIC assay, E. coli K12; conditions: overnight (16-20 hour) incubation
Experimental: as §1, §2, §3, §4, §5, §6, §7, §8, §9, §10
For the generation of overnight cultures to be used for preparation of the bacterial suspension for MIC tests, a single colony of bacteria was selected using a sterile loop and a sterile tube with MH broth was inoculated followed by overnight incubation at […] in a shaker set to 200 r.p.m.
After overnight incubation, the OD600 was measured and the overnight culture was diluted accordingly to obtain 1×10^8 cfu/mL.
Free payload dilutions were prepared as per Table 4.
96-well sterile microtiter plates were used for MIC assay. The plate was filled with the respective free payload or positive control antibiotic concentrations in triplicate. 100 μL of broth was pipetted in the sterility control well (SC, column 12) and 50 μL in the growth control well (GC, column 11).
1×10^8 cfu/mL bacterial suspension was diluted 1:100 and 50 μL added to each well apart from SC. […]
as §12

U138-MG (Glioblastoma) = assay: In vitro cytotoxicity, MTT assay, U138-MG; conditions: Homo sapiens, U138-MG, 72 h, read-out: Cytotoxicity
Experimental: as §13, §14

EMRSA 16 = assay: MIC assay, EMRSA 16; conditions: Staphylococcus aureus
Experimental: as §1, §2, §3, §4, §5, §6, §7, §8, §9, §10, §11, §12

[2] = system: transcription factors in HeLa cells; assay: Transcription factor plate array assay; conditions: 100 nM, 6 hours
Experimental: The consensus sequences of each of these transcription factors corresponds to the DNA footprinting pattern observed for 16.
The transcription factor plate array assay kit was obtained from Signosis Inc (USA). Briefly, 2×10^6 HeLa cells were treated with 100 nM compound 16 and incubated for 6 hours before extracting the nuclear protein and carrying out the TF plate array assay. The assay was carried out following the manufacturer's protocol. In the case of each transcription factor, the RLU value obtained for the cells treated with 16 was deducted from the respective values obtained for the untreated cells to obtain the differences in TF activation/inhibition.

Work on `COc1cc2c(cc1OCCCC(=O)Nc1cc(C(=O)Nc3ccc(-c4cc(C(=O)Nc5ccc(N)cc5)n(C)c4)cc3)n(C)c1)NC[C@@H]1CCCCN1C2=O` [Compound 16, (S)—N-(4-Aminophenyl)-4-(4-(4-(4-((2-methoxy-12-oxo-5,6,6a,7,8,9,10,12-octahydrobenzo[e]pyrido[1,2-a][1,4]diazepin-3-yl)oxy)butanamido)-1-methyl-1H-pyrrole-2-carboxamido)phenyl)-1-methyl-1H-pyrrole-2-carboxamide] yielded an MIC [1] of over 8 µg/mL, an IC50 (A431 (Skin)) of 61.5 nM and an MIC (E. coli K12; E. coli K12 (Gram-negative)) of 2 to 4 µg/mL. For the same compound, the MIC (E. coli K12; Escherichia coli, K12, E. coli K12 (Gram-negative)) was 2 µg/mL (≈ 2.64 µM), the IC50 (U138-MG (Glioblastoma)) was 184 nM and the MIC (EMRSA 16) was 0.25 to 0.5 µg/mL (≈ 0.329 to 0.659 µM). For the same compound, the “major transcription factors down-regulated” value [2] was “GR/PR, CDP, ATG2 and Oct-4”.
